# Results from patent publication US20080009418A1, “Selective Inhibitors” (Alchemia LTD., priority 2004, published 2008).
# Key:
# Human μ-opioid (MOP) = molecular target: T1, Human μ-opioid (MOP) (Homo sapiens, UniProt P35372); test: Radioligand binding, human μ-opioid (MOP) membranes, FlashPlate, [3H]-Naloxone; settings: compound at 10 μM; for A7 radioligand binding, percentage inhibition: [3H]-Naloxone
# T1 construct: purchased Perkin Elmer Biosignal
# Summary of the method: (§1)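 Cloned human receptor membranes were coated onto FlashPlate wells and incubated with radioligand and compound (added from a 0.5 mM DMSO daughter plate) for 1 hour at room temperature in the dark. Scintillation counting gave percent inhibition, with DMSO defining total and reference ligand defining non-specific binding.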
# Human Melanocortin (MC3) = molecular target: T2, Human Melanocortin (MC3) (Homo sapiens, UniProt P41968); test: Radioligand binding, human melanocortin MC3 membranes, FlashPlate, [125I]-NDP-αMSH; settings: compound at 10 μM; for A3 radioligand binding, percentage inhibition: [125I]-NDP-αMSH
# T2 construct: purchased Perkin Elmer Biosignal
# T2 sequence (P41968 whole entry): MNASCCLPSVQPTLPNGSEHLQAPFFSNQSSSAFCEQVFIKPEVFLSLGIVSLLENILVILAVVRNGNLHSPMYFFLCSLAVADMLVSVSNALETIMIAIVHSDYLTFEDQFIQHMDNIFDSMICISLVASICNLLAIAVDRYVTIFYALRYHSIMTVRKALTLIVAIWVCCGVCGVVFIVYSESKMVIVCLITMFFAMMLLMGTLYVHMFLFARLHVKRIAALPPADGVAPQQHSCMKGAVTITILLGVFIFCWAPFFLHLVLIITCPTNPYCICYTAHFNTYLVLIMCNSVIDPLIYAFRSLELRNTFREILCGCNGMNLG
# Summary of the method: as §1
# [1] = molecular target: T3, Human neuropeptide Y (NPY-Y1) (Homo sapiens, UniProt P25929); test: Radioligand binding, human neuropeptide Y NPY-Y1 membranes, FlashPlate, [125I]-PYY; settings: compound at 10 μM; for A9 radioligand binding, percentage inhibition: [125I]-PYY
# T3 construct: purchased Perkin Elmer Biosignal
# T3 sequence (P25929 1-384): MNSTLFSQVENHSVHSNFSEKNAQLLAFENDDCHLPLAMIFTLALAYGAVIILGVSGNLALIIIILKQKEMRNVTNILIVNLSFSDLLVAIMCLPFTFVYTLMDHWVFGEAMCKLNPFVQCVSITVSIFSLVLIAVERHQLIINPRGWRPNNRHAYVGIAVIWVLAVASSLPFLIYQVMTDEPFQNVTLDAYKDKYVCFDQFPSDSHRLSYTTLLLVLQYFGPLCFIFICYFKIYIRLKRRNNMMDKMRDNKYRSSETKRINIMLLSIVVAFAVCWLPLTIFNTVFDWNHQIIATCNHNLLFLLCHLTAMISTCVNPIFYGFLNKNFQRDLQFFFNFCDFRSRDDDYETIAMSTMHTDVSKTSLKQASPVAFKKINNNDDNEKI
# Summary of the method: as §1
# Human Melanocortin (MC4) = molecular target: T4, Human Melanocortin (MC4) (Homo sapiens, UniProt P32245); test: Radioligand binding, human melanocortin MC4 membranes, FlashPlate, [125I]-NDP-αMSH; settings: compound at 10 μM; for A4 radioligand binding, percentage inhibition: [125I]-NDP-αMSH
# T4 construct: purchased Perkin Elmer Biosignal
# T4 sequence (P32245 whole entry): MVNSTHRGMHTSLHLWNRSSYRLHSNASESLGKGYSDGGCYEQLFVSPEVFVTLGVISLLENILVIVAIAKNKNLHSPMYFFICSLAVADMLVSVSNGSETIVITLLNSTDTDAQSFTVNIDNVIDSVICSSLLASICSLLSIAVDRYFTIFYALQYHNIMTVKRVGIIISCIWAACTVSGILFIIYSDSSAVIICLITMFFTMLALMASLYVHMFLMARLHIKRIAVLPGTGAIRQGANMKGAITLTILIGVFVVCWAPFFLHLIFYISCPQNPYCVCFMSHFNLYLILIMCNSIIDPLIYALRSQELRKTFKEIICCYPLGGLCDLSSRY
# Summary of the method: as §1
# Human neurokinin (NK1) = molecular target: T5, Human neurokinin (NK1) (Homo sapiens, UniProt P25103); test: Radioligand binding, human neurokinin NK1 membranes, filtration, [125I]-Substance P; settings: compound at 10 μM; for A8 radioligand binding, percentage inhibition: [125I]-Substance P
# T5 construct: purchased Perkin Elmer Biosignal
# T5 sequence (P25103 whole entry): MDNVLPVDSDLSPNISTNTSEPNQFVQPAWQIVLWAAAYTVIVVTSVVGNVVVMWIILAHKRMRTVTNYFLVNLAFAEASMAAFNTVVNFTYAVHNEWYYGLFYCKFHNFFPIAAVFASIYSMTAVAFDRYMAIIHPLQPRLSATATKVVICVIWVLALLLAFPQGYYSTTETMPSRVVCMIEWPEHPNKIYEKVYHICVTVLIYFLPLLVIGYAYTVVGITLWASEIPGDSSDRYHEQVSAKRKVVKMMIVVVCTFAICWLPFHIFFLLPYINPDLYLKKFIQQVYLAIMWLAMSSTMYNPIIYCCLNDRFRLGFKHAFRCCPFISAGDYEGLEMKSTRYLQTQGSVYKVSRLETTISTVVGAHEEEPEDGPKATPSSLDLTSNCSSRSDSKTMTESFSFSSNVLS
# Summary of the method: (§2)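 Percent inhibition of radioligand binding measured on recombinant human membranes: NK1 with [125I]-Substance P, KOP with [3H]-Diprenorphine. Incubation 1 h at room temperature, then harvest onto 0.3% PEI-soaked filters, cold Tris-HCl pH 7.4 washes and scintillation counting; non-specific binding from reference ligand wells.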
# Human opioid (ORL1) = molecular target: T6, Human opioid (ORL1) (Homo sapiens, UniProt P41146); test: Radioligand binding, human opioid ORL1 membranes, FlashPlate, [125I]-Nociceptin; settings: compound at 10 μM; for A10 radioligand binding, percentage inhibition: [125I]-Nociceptin
# T6 construct: purchased Perkin Elmer Biosignal
# T6 sequence (P41146 whole entry): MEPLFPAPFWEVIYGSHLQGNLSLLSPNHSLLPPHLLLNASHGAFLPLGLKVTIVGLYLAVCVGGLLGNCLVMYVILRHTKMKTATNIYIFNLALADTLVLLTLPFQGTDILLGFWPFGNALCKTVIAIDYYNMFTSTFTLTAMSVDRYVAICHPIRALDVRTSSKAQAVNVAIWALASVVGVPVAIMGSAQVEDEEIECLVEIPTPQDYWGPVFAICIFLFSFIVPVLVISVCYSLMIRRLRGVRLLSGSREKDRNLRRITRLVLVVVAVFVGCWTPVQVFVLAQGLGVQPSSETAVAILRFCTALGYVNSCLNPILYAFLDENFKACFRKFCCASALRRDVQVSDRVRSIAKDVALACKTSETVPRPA
# Summary of the method: as §1
# [2] = molecular target: T7, Human melanin-concentrating hormone (MCH1) (Homo sapiens, UniProt Q99705); test: Radioligand binding, human melanin-concentrating hormone MCH1 membranes, FlashPlate, [125I]-S36057; settings: compound at 10 μM; for A6 radioligand binding, percentage inhibition: [125I]-S36057
# T7 construct: purchased Perkin Elmer Biosignal
# T7 sequence (Q99705 whole entry): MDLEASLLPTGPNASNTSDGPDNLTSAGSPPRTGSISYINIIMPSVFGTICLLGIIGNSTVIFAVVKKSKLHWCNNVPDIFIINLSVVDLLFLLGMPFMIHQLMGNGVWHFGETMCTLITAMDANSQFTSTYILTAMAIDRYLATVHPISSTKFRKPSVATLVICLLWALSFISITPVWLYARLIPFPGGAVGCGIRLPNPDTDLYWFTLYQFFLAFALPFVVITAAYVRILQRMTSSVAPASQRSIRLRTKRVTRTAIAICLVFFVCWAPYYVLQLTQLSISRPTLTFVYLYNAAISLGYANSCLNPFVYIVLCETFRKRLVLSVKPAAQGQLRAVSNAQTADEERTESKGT
# Summary of the method: as §1
# Human melanocortin (MC5) = molecular target: T8, Human melanocortin (MC5) (Homo sapiens, UniProt P33032); test: Radioligand binding, human melanocortin MC5 membranes, FlashPlate, [125I]-NDP-αMSH; settings: compound at 10 μM; for A5 radioligand binding, percentage inhibition: [125I]-NDP-αMSH
# T8 construct: purchased Perkin Elmer Biosignal
# T8 sequence (P33032 whole entry): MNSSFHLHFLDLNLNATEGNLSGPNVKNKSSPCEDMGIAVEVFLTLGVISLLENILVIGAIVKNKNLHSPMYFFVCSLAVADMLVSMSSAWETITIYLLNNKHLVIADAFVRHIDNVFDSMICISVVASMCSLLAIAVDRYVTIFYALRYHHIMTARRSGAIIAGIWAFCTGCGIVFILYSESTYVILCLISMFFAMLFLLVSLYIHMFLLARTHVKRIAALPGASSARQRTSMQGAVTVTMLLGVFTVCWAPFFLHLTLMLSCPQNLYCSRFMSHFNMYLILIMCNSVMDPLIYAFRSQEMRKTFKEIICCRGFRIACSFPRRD
# Summary of the method: as §1
# Human δ-opioid (DOP) = molecular target: T9, Human δ-opioid (DOP) (Homo sapiens, UniProt P41143); test: Radioligand binding, human δ-opioid (DOP) membranes, FlashPlate, [3H]-Bremazocine; settings: compound at 10 μM; for A1 radioligand binding, percentage inhibition: [3H]-Bremazocine
# T9 construct: purchased Perkin Elmer Biosignal
# T9 sequence (P41143 whole entry): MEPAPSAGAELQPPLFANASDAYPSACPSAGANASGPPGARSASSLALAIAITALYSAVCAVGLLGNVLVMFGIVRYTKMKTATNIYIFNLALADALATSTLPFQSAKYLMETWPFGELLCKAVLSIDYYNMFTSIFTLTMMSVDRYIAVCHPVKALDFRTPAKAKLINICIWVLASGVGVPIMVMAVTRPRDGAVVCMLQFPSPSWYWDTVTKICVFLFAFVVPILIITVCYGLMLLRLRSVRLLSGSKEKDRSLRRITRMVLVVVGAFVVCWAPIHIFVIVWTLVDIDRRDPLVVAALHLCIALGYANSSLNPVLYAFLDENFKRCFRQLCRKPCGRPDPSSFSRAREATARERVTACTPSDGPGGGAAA
# Summary of the method: as §1
# Human κ-Opioid (KOP) = molecular target: T10, Human κ-Opioid (KOP) (Homo sapiens, UniProt P41145); test: Radioligand binding, human κ-opioid (KOP) membranes, filtration, [3H]-Diprenorphine; settings: compound at 10 μM; for A2 radioligand binding, percentage inhibition: [3H]-Diprenorphine
# T10 construct: purchased Perkin Elmer Biosignal
# T10 sequence (P41145 whole entry): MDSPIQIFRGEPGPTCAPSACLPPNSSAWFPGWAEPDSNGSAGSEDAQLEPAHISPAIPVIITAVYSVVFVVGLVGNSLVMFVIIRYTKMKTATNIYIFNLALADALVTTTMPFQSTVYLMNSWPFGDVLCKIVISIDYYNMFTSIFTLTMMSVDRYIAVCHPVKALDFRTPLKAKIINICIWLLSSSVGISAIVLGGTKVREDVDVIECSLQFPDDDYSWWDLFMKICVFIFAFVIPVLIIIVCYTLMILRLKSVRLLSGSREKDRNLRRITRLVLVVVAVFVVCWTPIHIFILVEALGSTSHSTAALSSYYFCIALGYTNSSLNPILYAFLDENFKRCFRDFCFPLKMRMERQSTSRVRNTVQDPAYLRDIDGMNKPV
# Summary of the method: as §2
# Mouse urotensin (mUR2) = molecular target: T11, Mouse urotensin (mUR2) (Mus musculus, UniProt Q8VIH9); test: Radioligand binding, mouse urotensin mUR2 membranes, FlashPlate, [125I]-Urotensin II; settings: compound at 10 μM; for A11 radioligand binding, percentage inhibition: [125I]-Urotensin II
# T11 construct: purchased Perkin Elmer Biosignal
# T11 sequence (Q8VIH9 1-385): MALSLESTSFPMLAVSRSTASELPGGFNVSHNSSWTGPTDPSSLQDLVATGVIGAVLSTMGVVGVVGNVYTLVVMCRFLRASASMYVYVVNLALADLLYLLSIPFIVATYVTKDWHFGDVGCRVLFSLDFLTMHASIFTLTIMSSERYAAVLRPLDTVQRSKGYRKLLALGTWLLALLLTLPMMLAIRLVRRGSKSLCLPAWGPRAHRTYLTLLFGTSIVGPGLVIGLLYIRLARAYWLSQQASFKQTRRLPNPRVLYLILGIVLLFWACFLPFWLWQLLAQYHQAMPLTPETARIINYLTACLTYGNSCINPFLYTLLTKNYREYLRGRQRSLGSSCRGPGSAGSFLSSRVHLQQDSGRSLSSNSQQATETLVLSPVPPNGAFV
# Summary of the method: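 Cloned mouse urotensin (mUR2) receptor membranes from Perkin Elmer Biosignal were immobilized in FlashPlate microplates using a proprietary coating. Each well got 19.5 μl buffer, then 0.5 μl of DMSO, reference ligand, or compound. Adding 5 μl of [125I]-Urotensin II, diluted to 5× final concentration in binding buffer, started binding. Plates were sealed with TopSeal-A and incubated 1 hour at room temperature in the dark. Wells were counted for 30 seconds each on a TopCount after a 60-second delay, and percentage inhibition was calculated.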
# T1 sequence (P35372 whole entry): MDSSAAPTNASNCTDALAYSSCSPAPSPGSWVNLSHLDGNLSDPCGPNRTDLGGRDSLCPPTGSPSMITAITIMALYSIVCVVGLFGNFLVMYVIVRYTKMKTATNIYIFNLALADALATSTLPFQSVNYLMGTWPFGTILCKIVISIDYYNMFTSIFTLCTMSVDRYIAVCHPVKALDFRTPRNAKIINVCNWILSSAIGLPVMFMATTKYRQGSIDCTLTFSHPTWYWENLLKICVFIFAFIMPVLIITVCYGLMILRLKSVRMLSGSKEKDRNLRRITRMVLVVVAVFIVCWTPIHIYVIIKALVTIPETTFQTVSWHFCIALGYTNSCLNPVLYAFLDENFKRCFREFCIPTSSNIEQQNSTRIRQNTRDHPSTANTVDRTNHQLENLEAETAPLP
SMILES,"A7 radioligand binding, percentage inhibition (Human μ-opioid (MOP))","A3 radioligand binding, percentage inhibition (Human Melanocortin (MC3))","A9 radioligand binding, percentage inhibition [1]","A4 radioligand binding, percentage inhibition (Human Melanocortin (MC4))","A8 radioligand binding, percentage inhibition (Human neurokinin (NK1))","A10 radioligand binding, percentage inhibition (Human opioid (ORL1))","A6 radioligand binding, percentage inhibition [2]","A5 radioligand binding, percentage inhibition (Human melanocortin (MC5))","A1 radioligand binding, percentage inhibition (Human δ-opioid (DOP))","A2 radioligand binding, percentage inhibition (Human κ-Opioid (KOP))","A11 radioligand binding, percentage inhibition (Mouse urotensin (mUR2))",also measured
COCC1OC(OCc2ccccc2)C(NC(=O)CNC(=N)N)C(OCc2ccc(Cl)cc2)C1O (stereo not drawn) [compound 177],− (“−” indicates less than 50% inhibition at 10 μM),+ (“+” indicates greater than 50% inhibition at 10 μM),− (“−” indicates less than 50% inhibition at 10 μM),+ (“+” indicates greater than 50% inhibition at 10 μM),+ (“+” indicates greater than 50% inhibition at 10 μM),− (“−” indicates less than 50% inhibition at 10 μM),− (“−” indicates less than 50% inhibition at 10 μM),+ (“+” indicates greater than 50% inhibition at 10 μM),− (“−” indicates less than 50% inhibition at 10 μM),− (“−” indicates less than 50% inhibition at 10 μM),− (“−” indicates less than 50% inhibition at 10 μM),
COC[C@H]1OC(OCc2ccc(Cl)cc2)[C@H](NC(=O)CCNC(=N)N)[C@@H](OCc2ccc(-c3ccccc3)cc2)[C@@H]1O (stereo partly drawn) [compound 29],,,,,,,,,,,,A7 radioligand binding inhibition (Human μ-opioid (MOP); human μ-opioid (MOP) membranes): − (“−” indicates less than 50% inhibition at 10 μM); A3 radioligand binding inhibition (Human Melanocortin (MC3); human melanocortin MC3 membranes): + (“+” indicates greater than 50% inhibition at 10 μM); A9 radioligand binding inhibition ([1]; human NPY-Y1 membranes): − (“−” indicates less than 50% inhibition at 10 μM); A4 radioligand binding inhibition (Human Melanocortin (MC4); human melanocortin MC4 membranes): + (“+” indicates greater than 50% inhibition at 10 μM); A8 radioligand binding inhibition (Human neurokinin (NK1); human neurokinin NK1 membranes): + (“+” indicates greater than 50% inhibition at 10 μM); A10 radioligand binding inhibition (Human opioid (ORL1); human ORL1 membranes): − (“−” indicates less than 50% inhibition at 10 μM); A6 radioligand binding inhibition ([2]; human MCH1 membranes): + (“+” indicates greater than 50% inhibition at 10 μM); A5 radioligand binding inhibition (Human melanocortin (MC5); human melanocortin MC5 membranes): + (“+” indicates greater than 50% inhibition at 10 μM); A1 radioligand binding inhibition (Human δ-opioid (DOP); human δ-opioid (DOP) membranes): − (“−” indicates less than 50% inhibition at 10 μM); A2 radioligand binding inhibition (Human κ-Opioid (KOP); human κ-opioid (KOP) membranes): − (“−” indicates less than 50% inhibition at 10 μM); A11 radioligand binding inhibition (Mouse urotensin (mUR2); mouse urotensin mUR2 membranes): − (“−” indicates less than 50% inhibition at 10 μM)
CO[C@H]1[C@H](O)[C@@H](COCc2cccc(O)c2)OC(OCc2ccccc2)[C@@H]1NC(=O)CCCNC(=N)N (stereo partly drawn) [compound 154],− (“−” indicates less than 50% inhibition at 10 μM),− (“−” indicates less than 50% inhibition at 10 μM),− (“−” indicates less than 50% inhibition at 10 μM),− (“−” indicates less than 50% inhibition at 10 μM),+ (“+” indicates greater than 50% inhibition at 10 μM),− (“−” indicates less than 50% inhibition at 10 μM),− (“−” indicates less than 50% inhibition at 10 μM),− (“−” indicates less than 50% inhibition at 10 μM),− (“−” indicates less than 50% inhibition at 10 μM),− (“−” indicates less than 50% inhibition at 10 μM),− (“−” indicates less than 50% inhibition at 10 μM),
